# Columns and labels:
# [1] = target: T1, human Cystic Fibrosis Transmembrane Conductance Regulator (CFTR) harboring the ΔF508 mutation (Homo sapiens, UniProt P13569, DEL508-508); assay: H441 cell ΔF508-CFTR-HRP cell surface assay (Emax and EC50); type: cell-based; settings: for Emax: NCI-H441, NA = Not active
# T1 construct: expressed in transfected cells; host or cells: H441 carcinoma line (G418-selected)
# Procedure, shortened: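 H441 and 41o- bronchial epithelial cells expressing ΔF508-CFTR with an extracellular-loop-4 HRP tag were treated with a 15-point compound series (24.5–0.001 μM) for two nights, H441 at 27° C, 41o- at 37° C with 0.0005 mg/ml doxycycline. Surface HRP luminescence read; % of maximum VX809 signal and EC50 derived.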
# [2] = target: T2, CFTR-mediated transepithelial chloride transport in primary human bronchial epithelial cells from a ΔF508 homozygous CF donor (Homo sapiens, UniProt P13569, DEL508-508); assay: TECC24 recording of CFTR-mediated transepithelial chloride transport in CF-HBE cells (AUC fold over DMSO); type: cell-based; settings: test agent 10 μM, 48 hours incubation, AUC of forskolin-stimulated IEQ relative to DMSO
# T2 construct: Primary human bronchial epithelial cells from a ΔF508 homozygous CF donor; host or cells: primary CF-HBE cells, ΔF508 homozygous donor
# Procedure, shortened: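 Primary ΔF508/ΔF508 CF-HBE cells on inserts exposed to test agent in IL-13-containing medium for 48 h at 36.5 °C. Current-clamp VT/TEER recording in pH 7.4 HEPES saline with benzamil 10 μM, forskolin 10 μM, then CFTRinh-172 20 μM. AUC of equivalent Cl⁻ current between forskolin and inhibitor, expressed as ratio over vehicle.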
# T2 sequence (P13569 with tags, fused parts or gaps DEL508-508): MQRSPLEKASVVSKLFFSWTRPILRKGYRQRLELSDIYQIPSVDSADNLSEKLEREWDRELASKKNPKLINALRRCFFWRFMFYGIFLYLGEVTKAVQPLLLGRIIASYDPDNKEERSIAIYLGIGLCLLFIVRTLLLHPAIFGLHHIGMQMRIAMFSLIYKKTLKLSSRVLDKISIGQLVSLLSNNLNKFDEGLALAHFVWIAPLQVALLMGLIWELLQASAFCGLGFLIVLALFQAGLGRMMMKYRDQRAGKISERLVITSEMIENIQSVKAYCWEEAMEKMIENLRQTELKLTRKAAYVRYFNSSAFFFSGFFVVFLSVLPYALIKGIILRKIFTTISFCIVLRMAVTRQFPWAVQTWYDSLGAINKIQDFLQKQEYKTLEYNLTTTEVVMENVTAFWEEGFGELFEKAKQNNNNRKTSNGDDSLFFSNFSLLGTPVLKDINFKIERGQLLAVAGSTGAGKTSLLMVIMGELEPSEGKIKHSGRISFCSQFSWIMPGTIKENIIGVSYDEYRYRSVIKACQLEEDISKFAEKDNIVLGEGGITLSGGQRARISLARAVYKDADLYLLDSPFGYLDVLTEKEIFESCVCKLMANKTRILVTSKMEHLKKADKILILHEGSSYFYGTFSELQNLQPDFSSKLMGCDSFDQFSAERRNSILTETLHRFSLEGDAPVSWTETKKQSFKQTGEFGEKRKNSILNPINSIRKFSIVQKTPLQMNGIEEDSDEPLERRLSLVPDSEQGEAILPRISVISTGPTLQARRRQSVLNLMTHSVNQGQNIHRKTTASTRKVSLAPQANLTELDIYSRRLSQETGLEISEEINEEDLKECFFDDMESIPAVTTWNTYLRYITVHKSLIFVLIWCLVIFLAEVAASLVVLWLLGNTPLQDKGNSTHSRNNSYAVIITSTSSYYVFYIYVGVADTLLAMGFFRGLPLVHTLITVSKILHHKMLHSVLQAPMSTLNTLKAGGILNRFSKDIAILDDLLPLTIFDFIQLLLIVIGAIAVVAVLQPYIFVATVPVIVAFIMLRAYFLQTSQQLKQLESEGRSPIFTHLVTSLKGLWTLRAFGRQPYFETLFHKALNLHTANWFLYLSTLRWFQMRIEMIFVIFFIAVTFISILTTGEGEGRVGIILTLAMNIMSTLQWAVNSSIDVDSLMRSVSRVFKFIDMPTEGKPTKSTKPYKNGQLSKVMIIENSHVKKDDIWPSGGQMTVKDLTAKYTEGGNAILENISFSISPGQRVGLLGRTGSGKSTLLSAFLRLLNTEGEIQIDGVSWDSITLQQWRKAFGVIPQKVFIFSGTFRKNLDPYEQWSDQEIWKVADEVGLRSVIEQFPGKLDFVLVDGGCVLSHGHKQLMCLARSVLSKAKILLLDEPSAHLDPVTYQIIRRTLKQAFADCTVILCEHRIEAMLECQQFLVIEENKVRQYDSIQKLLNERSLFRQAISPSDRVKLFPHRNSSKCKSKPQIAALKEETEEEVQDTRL
# T1 sequence (P13569 with tags, fused parts or gaps DEL508-508): as above
EC50 [1] [nM],Emax [1] [%],TECC24 AUC fold over DMSO @10 μM [2],SMILES
200,227,A (“A” refers to AUC @10 uM >6),"CC1([C@H](NC(=O)c2ccc3ccc(C(F)(F)F)cc3c2OCc2ccc(C(F)(F)F)cc2)C(=O)O)CCC1 [Example 299, (S)-2-(1-methylcyclobutyl)-2-(7-(trifluoromethyl)-1-((4-(trifluoromethyl)benzyl)oxy)-2-naphthamido)acetic Acid]"
200,232,A (“A” refers to AUC @10 uM >6),"CC1([C@H](NC(=O)c2ccc3ccc(Cl)cc3c2OCc2ccc(C(F)(F)F)cc2)C(=O)O)CCC1 [Example 300, (S)-2-(7-chloro-1-((4-(trifluoromethyl)benzyl)oxy)-2-naphthamido)-2-(1-methylcyclobutyl)acetic Acid]"
100,217,A (“A” refers to AUC @10 uM >6),"CC1([C@H](NC(=O)c2ccc3ccc(C(F)(F)F)cc3c2OCc2ccc(C(F)(F)F)cc2)C(=O)O)CCCC1 [Example 301, (S)-2-(1-methylcyclopentyl)-2-(7-(trifluoromethyl)-1-((4-(trifluoromethyl)benzyl)oxy)-2-naphthamido)acetic Acid]"
100,248,A (“A” refers to AUC @10 uM >6),"CC1([C@H](NC(=O)c2ccc3ccc(Cl)cc3c2OCc2ccc(C(F)(F)F)cc2)C(=O)O)CCCC1 [Example 302, (S)-2-(7-chloro-1-((4-(trifluoromethyl)benzyl)oxy)-2-naphthamido)-2-(1-methylcyclopentyl)acetic Acid]"
700,174,B (“B” refers to AUC @10 uM between 4-6),"CC1([C@H](NC(=O)c2ccc3c(F)cccc3c2OCc2ccc(C(F)(F)F)cc2)C(=O)O)CCCC1 [Example 303, (S)-2-(5-fluoro-1-((4-(trifluoromethyl)benzyl)oxy)-2-naphthamido)-2-(1-methylcyclopentyl)acetic Acid]"
100,249,A (“A” refers to AUC @10 uM >6),"CCCC(C)(C)[C@H](NC(=O)c1ccc2ccc(C(F)(F)F)cc2c1OCc1ccc(C(F)(F)F)cc1)C(=O)O [Example 304, (S)-3,3-dimethyl-2-(7-(trifluoromethyl)-1-((4-(trifluoromethyl)benzyl)oxy)-2-naphthamido)hexanoic Acid]"
100,417,A (“A” refers to AUC @10 uM >6),"CCCC(C)(C)[C@H](NC(=O)c1ccc2ccc(Cl)cc2c1OCc1ccc(C(F)(F)F)cc1)C(=O)O [Example 306, (S)-2-(7-chloro-1-((4-(trifluoromethyl)benzyl)oxy)-2-naphthamido)-3,3-dimethylhexanoic Acid]"
600,81.1,C (“C” refers to AUC @10 uM <4),"CC(C)(C)[C@@H](NC(=O)c1ccc2ccc(C(F)(F)F)cc2c1OCc1ccc(C(F)(F)F)cc1)C(=O)O [Example 307, (R)-3,3-dimethyl-2-(7-(trifluoromethyl)-1-((4-(trifluoromethyl)benzyl)oxy)-2-naphthamido)butanoic Acid]"
500,408,A (“A” refers to AUC @10 uM >6),"COc1ccc2ccc(C(=O)N[C@H](C(=O)O)C(C)(C)C)c(OCc3ccc(C(F)(F)F)cc3)c2c1 [Example 308, (S)-2-(7-methoxy-1-((4-(trifluoromethyl)benzyl)oxy)-2-naphthamido)-3,3-dimethylbutanoic Acid]"
300,349,A (“A” refers to AUC @10 uM >6),"CCC(C)(C)[C@H](NC(=O)c1ccc2ccc(OC)cc2c1OCc1ccc(C(F)(F)F)cc1)C(=O)O [Example 309, (S)-2-(7-methoxy-1-((4-(trifluoromethyl)benzyl)oxy)-2-naphthamido)-3,3-dimethylpentanoic Acid]"
600,299,A (“A” refers to AUC @10 uM >6),"COc1ccc2ccc(C(=O)N[C@H](C(=O)O)C(C)(C)C)c(OCc3ccc(OC(F)(F)F)cc3)c2c1 [Example 310, (S)-2-(7-methoxy-1-((4-(trifluoromethoxy)benzyl)oxy)-2-naphthamido)-3,3-dimethylbutanoic Acid]"
500,345,A (“A” refers to AUC @10 uM >6),"CCC(C)(C)[C@H](NC(=O)c1ccc2ccc(OC)cc2c1OCc1ccc(OC(F)(F)F)cc1)C(=O)O [Example 311, (S)-2-(7-methoxy-1-((4-(trifluoromethoxy)benzyl)oxy)-2-naphthamido)-3,3-dimethylpentanoic Acid]"
2200,127,B (“B” refers to AUC @10 uM between 4-6),"CCC(C)(C)[C@@H](NC(=O)c1ccc2ccc(C)cc2c1OCc1ccc(OC(F)(F)F)cc1)C(=O)O [Example 312, (R)-3,3-dimethyl-2-(7-methyl-1-((4-(trifluoromethoxy)benzyl)oxy)-2-naphthamido)pentanoic Acid]"
300,152,A (“A” refers to AUC @10 uM >6),"CCC1([C@H](NC(=O)c2ccc3ccc(F)cc3c2OCc2ccc(OC(F)(F)F)cc2)C(=O)O)CCCC1 [Example 313, (S)-2-(1-ethylcyclopentyl)-2-(7-fluoro-1-((4-(trifluoromethoxy)benzyl)oxy)-2-naphthamido)acetic Acid]"
400,233,A (“A” refers to AUC @10 uM >6),"CCC1([C@H](NC(=O)c2ccc3ccc(F)cc3c2OCc2ccc(C(F)(F)F)cc2)C(=O)O)CCCC1 [Example 314, (S)-2-(1-ethylcyclopentyl)-2-(7-fluoro-1-((4-(trifluoromethyl)benzyl)oxy)-2-naphthamido)acetic Acid]"

# Source: patent US12630498B2 (Genzyme Corporation, priority 2019, dated 2026)
